In ChEMBL document CHEMBL3217738, “Preparation of blood-brain barrier-permeable paclitaxel-carrier conjugate and its chemotherapeutic activity in the mouse glioblastoma model” (Medchemcomm, 2011):
Calls of active or inactive are those of the source. No cut-off for these calls is given here.

Legend:
[1] = Cytotoxicity against African green monkey COS7 cells assessed as cell viability at 1 uM after 48 hrs by MTT assay relative to control; format: cell-based, COS-7; conditions: chlorocebus aethiops, read-out: Activity
[2] = Cytotoxicity against African green monkey COS7 cells assessed as cell viability at 10 uM after 48 hrs by MTT assay relative to control; format: cell-based, COS-7; conditions: chlorocebus aethiops, read-out: Activity
[3] = tested on: HeLa; test: Cytotoxicity against human HeLa cells assessed as cell viability at 10 uM after 48 hrs by MTT assay relative to control; format: functional; conditions: read-out: Activity
[4] = tested on: RAW264.7; test: Cytotoxicity against mouse RAW264.7 cells assessed as cell viability at 1 uM after 48 hrs by MTT assay relative to control; format: functional; conditions: RAW264.7, 48 h, read-out: Activity
[5] = tested on: RAW264.7; test: Cytotoxicity against mouse RAW264.7 cells assessed as cell viability at 10 uM after 48 hrs by MTT assay relative to control; format: functional; conditions: RAW264.7, 48 h, read-out: Activity
[6] = tested on: RAW264.7; test: Cytotoxicity against mouse RAW264.7 cells assessed as cell viability at 0.1 uM after 48 hrs by MTT assay relative to control; format: functional; conditions: RAW264.7, 48 h, read-out: Activity
[7] = tested on: HeLa; test: Cytotoxicity against human HeLa cells assessed as cell viability at 0.1 uM after 48 hrs by MTT assay relative to control; format: functional; conditions: read-out: Activity
[8] = Cytotoxicity against African green monkey COS7 cells assessed as cell viability at 100 uM after 48 hrs by MTT assay relative to control; format: cell-based, COS-7; conditions: chlorocebus aethiops, read-out: Activity
[9] = tested on: HeLa; test: Cytotoxicity against human HeLa cells assessed as cell viability at 1 uM after 48 hrs by MTT assay relative to control; format: functional; conditions: read-out: Activity
[10] = Cytotoxicity against African green monkey COS7 cells assessed as cell viability at 0.1 uM after 48 hrs by MTT assay relative to control; format: cell-based, COS-7; conditions: chlorocebus aethiops, read-out: Activity
[11] = tested on: RAW264.7; test: Cytotoxicity against mouse RAW264.7 cells assessed as cell viability at 100 uM after 48 hrs by MTT assay relative to control; format: functional; conditions: RAW264.7, 48 h, read-out: Activity
[12] = tested on: HeLa; test: Cytotoxicity against human HeLa cells assessed as cell viability at 100 uM after 48 hrs by MTT assay relative to control; format: functional; conditions: read-out: Activity
[13] = Antitumor activity against human U87MG cells xenografted in Balb/c nude mouse assessed as reduction in tumor volume at 7.5 mg/kg, po administered twice per week for 2 weeks measured after 4 weeks (reference value: 25 +/- 2.6 mm3); format: functional, U-87MG ATCC
[14] = Antitumor activity against human U87MG cells xenografted in Balb/c nude mouse orthotopic model assessed as reduction in tumor volume at 3.75 mg/kg, po administered twice per week for 2 weeks measured after 4 weeks (reference value: 25 +/- 2.6 mm3); format: functional, U-87MG ATCC
[15] = tested on: U-87 MG; test: Induction of apoptosis in human U87MG cells xenografted in mouse at 3.75 to 7.5 mg/kg, po administered twice per week for 2 weeks measured after 4 weeks by TUNEL-staining based immunohistochemical analysis relative to control; format: functional, organism-based; conditions: U-87MG ATCC
[16] = tested on: U-87MG ATCC; test: Antitumor activity against human U87MG cells xenografted in mouse assessed as tumor growth inhibition by measuring PCNA-positive cells at […] 7.5 mg/kg, po administered twice per week for 2 weeks measured after 4 weeks by immunohistochemical analysis relative to control; format: functional, organism-based
[17] = tested on: U-87MG ATCC; test: Antitumor activity against human U87MG cells xenografted in mouse assessed as decrease in microvessel density in tumor bed by measuring CD31-positive cells at […] 7.5 mg/kg, po administered twice per week for 2 weeks measured after 4 weeks by immunohistochemical analysis relative to control; format: functional, organism-based
[18] = tested on: Liver; test: Drug uptake in liver of C57BL/6 mouse at 115.6 mg/kg, ip after 20 mins by fluorescence microscopy; format: ADME, organism-based; set-up: dose 115.6 mg/kg, route intraperitoneal; conditions: in vivo
[19] = tested on: Kidney; test: Drug uptake in kidney of C57BL/6 mouse at 115.6 mg/kg, ip after 20 mins by fluorescence microscopy; format: ADME, organism-based; set-up: dose 115.6 mg/kg, route intraperitoneal; conditions: in vivo
[20] = tested on: Spleen; test: Drug uptake in spleen of C57BL/6 mouse at 115.6 mg/kg, ip after 20 mins by fluorescence microscopy; format: ADME, organism-based; set-up: dose 115.6 mg/kg, route intraperitoneal; conditions: in vivo
[21] = tested on: Heart; test: Drug uptake in heart muscle of C57BL/6 mouse at 115.6 mg/kg, ip after 20 mins by fluorescence microscopy; format: ADME, organism-based, Muscle tissue; set-up: dose 115.6 mg/kg, route intraperitoneal; conditions: in vivo
[22] = tested on: Brain; test: Drug uptake in brain of C57BL/6 mouse at 115.6 mg/kg, ip after 20 mins by fluorescence microscopy; format: ADME, organism-based; set-up: dose 115.6 mg/kg, route intraperitoneal; conditions: in vivo
[23] = tested on: Lung; test: Drug uptake in lung of C57BL/6 mouse at 115.6 mg/kg, ip after 20 mins by fluorescence microscopy; format: ADME, organism-based; set-up: dose 115.6 mg/kg, route intraperitoneal; conditions: in vivo

Row | SMILES | viability at 48 h, 1 µM [1] | viability at 48 h, 10 µM [2] | viability at 10 µM [3] | viability at 1 µM [4] | viability at 10 µM [5] | viability at 0.1 µM [6] | viability at 0.1 µM [7] | viability at 48 h, 100 µM [8] | viability at 1 µM [9] | viability at 48 h, 0.1 µM [10] | viability at 100 µM [11] | viability at 100 µM [12] | Activity [13] | also measured
1 | CC(=O)O[C@H]1C(=O)[C@@]2(C)[C@H]([C@H](OC(=O)c3ccccc3)[C@]3(O)C[C@H](OC(=O)[C@H](O)[C@@H](NC(=O)c4ccccc4)c4ccccc4)C(C)=C1C3(C)C)[C@]1(OC(C)=O)CO[C@@H]1C[C@@H]2O [PACLITAXEL] | 66.5% | 71.9% | 96.1% | 39.2% | 49.9% | 39.3% | 76.3% | 41.5% | 86.3% | 65.4% | 13.3% | 56.5% | 19.4 mm3 | 
2 | CC(=O)O[C@H]1C(=O)[C@@]2(C)[C@H]([C@H](OC(=O)c3ccccc3)[C@]3(O)C[C@H](OC(=O)[C@H](OC(=O)CCC(=O)OC[C@@H](OC(=O)CCCCCN(CCCNC(=N)N)CCCNC(=N)N)[C@@H](OC(=O)CCCCCN(CCCNC(=N)N)CCCNC(=N)N)[C@H](OC(=O)CCCCCN(CCCNC(=N)N)CCCNC(=N)N)[C@H](CO)OC(=O)CCCCCN(CCCNC(=N)N)CCCNC(=N)N)[C@@H](NC(=O)c4ccccc4)c4ccccc4)C(C)=C1C3(C)C)[C@]1(OC(C)=O)CO[C@@H]1C[C@@H]2O.Cl | 92.4% | 94.5% | 83.1% | 111% | 53.4% | 117% | 87.4% | 20.6% | 78% | 96.2% | 2.6% | 3.8% | 4.7 mm3 | Activity [14]: 6.1 mm3; Activity [15]: Active; TGI [16]: Active; Activity [17]: Active
3 | CC(=O)O[C@H]1C(=O)[C@@]2(C)[C@H]([C@H](OC(=O)c3ccccc3)[C@]3(O)C[C@H](OC(=O)[C@H](OC(=O)CCC(=O)OC[C@H](OC(=O)CCCCCN(CCCNC(=N)N)CCCNC(=N)N)[C@@H](OC(=O)CCCCCN(CCCNC(=N)N)CCCNC(=N)N)[C@H](OC(=O)CCCCCN(CCCNC(=N)N)CCCNC(=N)N)[C@@H](COC(=O)CCCCCNC(=S)Nc4ccc(-c5c6ccc(=O)cc-6oc6cc(O)ccc56)c(C(=O)O)c4)OC(=O)CCCCCN(CCCNC(=N)N)CCCNC(=N)N)[C@@H](NC(=O)c4ccccc4)c4ccccc4)C(C)=C1C3(C)C)[C@]1(OC(C)=O)CO[C@@H]1C[C@@H]2O.Cl |  |  |  |  |  |  |  |  |  |  |  |  |  | Drug uptake [18]: Active; Drug uptake [19]: Active; Drug uptake [20]: Active; Drug uptake [21]: Active; Drug uptake [22]: Active; Drug uptake [23]: Active
